# Measurements as given in paper PMC9083324, “Identifying Acute Cardiac Hazard in Early Drug Discovery Using a Calcium Transient High-Throughput Assay in Human-Induced Pluripotent Stem Cell-Derived Cardiomyocytes” (Frontiers in Physiology, 2022).
# How the values were obtained:
# [1] = tested on: hiPSC-CMs (iCell Cardiomyocytes^2); experiment: Ca2+ transient assay (CTCM) with acute cardiac hazard scoring in hiPSC-CMs; conditions: for incidence of EADs / prolongation of CTD90: 3 nM
# Protocol: Cells were pre-plated and seeded in fibronectin-coated 96-well plates at a density suited to form a monolayer and maintained in culture in a stage incubator (37°C, 5% CO2) according to the instructions of the cell provider. […] The beating monolayer was taken from frozen vials iCell Cardiomyocytes^2 (≈5 million cells/vial), which were plated onto three 96-well plates (≈50K/well).
# Cells from these lot numbers were from the same donor (Apparently healthy normal, age <18) (according to FUJIFILM Cellular Dynamics).
# On the day of the experiment, the culture medium in the 96-well plates containing the monolayers of hiPSC-CMs was replaced with Tyrode’s solution (Sigma, No. T2397) supplemented with 10 mM HEPES together with KCl to yield isokalemic (4.2 mM K^+) conditions.
# The Ca^2+-sensitive fluorescence dye Cal-520™ AM (Cat. no.21131; AAT Bioquest) was used to capture the intracellular Ca^2+ transients in hiPSC-CMs. […] Briefly, Cal-520 was incubated for 70 min followed by a wash-out with supplemented Tyrode’s solution and a 30-min recovery before starting the experiments at 37°C. […] Compounds were added automatically using the Functional Drug Screen System (FDSS/µCell; Hamamatsu, Japan) head stage by adding 100 µl of the 2-fold concentrated compound solution to wells with hiPSC-CMs already containing a volume of 100 µl of the experimental solution, reaching the final intended test concentration in 0.1% DMSO.
# The spontaneous beating activity of hiPSC-CMs was assessed through measurement of the Ca^2+ fluorescence signal integrated over the whole well. Ten minutes before starting the recordings, the experimental plates were put into the FDSS system for stabilization and a baseline recording was captured for 4 min followed by compound addition. The effect of the compounds was recorded around 30 min after compound addition. The Ca^2+ transient signals were sampled every 16 ms (frame rate of 62.5 Hz) in hiPSC-CMs maintained at 37°C during the acquisition time. […] In addition, beat rate (BR = peak count/min) and amplitude (amp = difference between max. and min of every beat) were measured, and incidence of cellular arrhythmias, e.g., EAD-like activity (considered a surrogate of TdP), cessation of beating (∼ stop beating), and below beating below quantification level (caused by low amplitude of the Ca^2+ transient or by ectopic beat: BBQL) were also recorded (Figures 1B,C).
# For all individual experiments, delta percent (Δ%) at 30 min with respect to the baseline value was calculated [e.g., ∆% for CTD90 = (CTD90 30 min-CTD90 0 min)/CTD90 0 min) × 100].
# TIs indicate an interval where, with a certain confidence level (1- α = 0.95), a specified proportion (p = 0.90) of a sampled population falls. […] These ΔΔ% net effects were the values obtained after normalization for baseline (Δ% vs. baseline) per well and the aggregated compound-treated wells are vehicle corrected by subtraction with the aggregated Δ% of the corresponding DMSO wells from the same plate [e.g., ΔΔ% = median Δ% drug - median Δ% DMSO]. The categorization was made first for each concentration and then aggregated per compound and test site. […] Similarly, a compound was categorized as decreased if it was in a category “decreased” in at least one of the four concentrations.
# The cut-off values are net changes (ΔΔ% changes vs. baseline and vehicle), which are based on the statistical tolerance intervals (TIs) (Δ% changes vs. baseline). TIs indicate an interval where, with a certain confidence level, a specified proportion of a sampled population falls.
# [2] = tested on: hiPSC-CMs (iCell Cardiomyocytes); experiment: Ca2+ transient assay (CTCM), lot-to-lot comparison in iCell Cardiomyocytes (non-square cells, Lot 103674); format: cell-based, human
# Protocol: To investigate lot-to-lot variability in hiPSC-CMs, we tested 19 drugs with known clinical cardiac risk in other lots of iCell Cardiomyocytes^2. Fifty-five reference drugs were tested in iCell Cardiomyocytes^2 -Lot12012, 18 reference drugs were tested in iCell Cardiomyocytes^2 (Lot105091), and 18 reference drugs were tested in iCell Cardiomyocytes (Lot103674) (nonsquare cells).
# IKr = tested on: IKr; set-up: method as in Liu et al., 2010; conditions: ref Liu et al., 2010; cited from earlier work
# IKs = tested on: IKs; set-up: method as in Liu et al., 2010; conditions: ref Liu et al., 2010; cited from earlier work
# [3] = similar among the iCell Cardiomyocytes^2 and iCell Cardiomyocytes lots
# [4] = 3 nM (2-fold fCmax), n = 131 studies
# [5] = updated scoring: 10 points for decrease in beat rate by ≥ −30%
# [6] = over the tested concentrations (Figure 3)
smiles,measurement,setting,value
CC(C)NCC(O)COc1ccc(CC(N)=O)cc1 (stereo not drawn) [Atenolol],hazard score,[1]; [3],no hazard
[Ba+2].[Cl-].[Cl-] [BaCl2],effect on hiPSC-CMs (detection in the assay),[1]; concentration not given,no effect
C[C@H](CS)C(=O)N1CCC[C@H]1C(=O)O [Captopril],hazard score,[1]; [3],no hazard
O=C(O)COCCN1CCN(C(c2ccccc2)c2ccc(Cl)cc2)CC1 (stereo not drawn) [Cetirizine],hazard score,"[1]; 1 µM (16-fold the fCmax), numerous studies",no hazard
CN(CCOc1ccc(NS(C)(=O)=O)cc1)CCc1ccc(NS(C)(=O)=O)cc1 [Dofetilide],incidence of EADs,"[2]; 3 nM, iCell Cardiomyocytes",65%
same,prolongation of CTD90,"[2]; 3 nM, lot105091 as printed (n = 20)",234%
same,share of studies identified as high (red color) hazard score,[1]; [4],21%
same,share of studies identified as very high (black color) hazard score,[1]; [4],71%
same,share of studies identified as yellow hazard score,[1]; [4],8%
same,incidence of EADs,"[1]; first iCell Cardiomyocytes^2 lot (12,012)",63%
same,prolongation of CTD90,"[1]; lot 10,591 (n = 28)",330%
same,prolongation of CTD90,"[1]; lot 12,012 (n = 144)",305%
same,incidence of EADs,[1]; second iCell Cardiomyocytes^2 lot,71%
CC(C)(C)c1ccc(C(=O)CCCN2CCC(OC(c3ccccc3)c3ccccc3)CC2)cc1 [Ebastine],hazard score,[1]; [3],no hazard
O=C(Nc1ccc(Oc2ccccc2)cc1)c1cccc([N+](=O)[O-])c1 [ICA-105574],effect on CTD90,[1]; concentration not given,shortened
CC(C)NCC(O)c1ccc(O)c(O)c1 (stereo not drawn) [Isoproterenol],share of studies identified within the low and high hazard zones,"[1]; 100 nM (63-fold fCmax), n = 143 studies",92%
COc1cc2c(cc1OC)CC(=O)N(CCCN(C)C[C@H]1Cc3cc(OC)c(OC)cc31)CC2 [Ivabradine],hazard score,[1]; [5],low
CC(C)(Oc1ccc(Cl)cc1)C(=O)NC1C2CC3CC1CC(NS(C)(=O)=O)(C3)C2 (stereo not drawn) [JNJ-303],effect on hiPSC-CMs (detection in the assay),[1]; concentration not given,not detected
Cc1cccc(C)c1OCC(C)N (stereo not drawn) [Mexiletine],cessation of beating,[1]; 100 µM = 67x fCmax,some cessation of beating
same,hazard score,[1]; 100 µM = 67x fCmax,Red
COCCOC(=O)C1=C(C)NC(C)=C(C(=O)OC(C)C)C1c1cccc([N+](=O)[O-])c1 (stereo not drawn) [Nimodipine],share of studies identified within the low and high hazard zones,"[1]; 300 nM (15-fold fCmax), n = 124 studies",95%
Cc1cc2c(s1)Nc1ccccc1N=C2N1CCN(C)CC1 [Olanzapine],hazard score,[1]; highest tested concentration 100 nM (around fCmax),not found to be with any hazard level
O=C1NC(=O)C(c2ccccc2)(c2ccccc2)N1 [Phenytoin],hazard score,[1]; [6],Green
CCC1(c2ccccc2)C(=O)NCNC1=O [Primidone],hazard score,[1]; [6],Green
O=C(c1ccc(OCCN2CCCCC2)cc1)c1c(-c2ccc(O)cc2)sc2cc(O)ccc12 [Raloxifene],hazard score,[1]; at >2000 folds of fCmax,red
same,hazard score,[1]; at ∼700–800 folds fCmax,green
same,IC50,IKr,1100 nM
same,IC50,IKs,4.8 µM
CC(C)NCC(O)c1ccc(NS(C)(=O)=O)cc1 (stereo not drawn) [Sotalol],EAD incidence compared to the two lots of iCell-Cardiomyocytes^2 (3 and 10 µM),"[2]; iCell Cardiomyocytes, 10 µM",much higher
Nc1ncnc2c1ncn2[C@@H]1O[C@H](CO)[C@@H](O)[C@H]1O [adenosine],hazard score,[1]; [5],low
C[N+](C)(C)CCOC(N)=O [carbachol],hazard score,[1]; [5],low
CC(C)(C)c1ccc(C(O)CCCN2CCC(C(O)(c3ccccc3)c3ccccc3)CC2)cc1 (stereo not drawn) [terfenadine],cessation of beating,[1]; concentration not given,caused cessation of beating
same,effect on CTD90,[1]; concentration not given,slightly shortened
